# Source: ChEMBL document CHEMBL5034034 (J Med Chem, 2021)
# The source made the active and inactive calls. The rule behind the calls is not given here.
# What was measured:
# [1] = Cmax in cynomolgus monkey at 1 mg/kg, po measured upto 72 hrs by LC-MS/MS analysis; type: ADME, organism-based, Macaca fascicularis; parameters: route oral, dose 1 mg/kg, time <=72; details: in vivo
# [2] = target: T1, Solute carrier organic anion transporter family member 1B1 (Homo sapiens, UniProt Q9Y6L6); test: Inhibition of OATP1B1 (unknown origin) expressed in HEK293 cells assessed as reduction in OATP 1B1-mediated [3H]-pitavastatin uptake preincubated for 30 mins followed by [3H]-pitavastatin addition and measured after 2 mins by liquid scintillation analysis; type: cell-based
# T1 sequence (Q9Y6L6 whole entry): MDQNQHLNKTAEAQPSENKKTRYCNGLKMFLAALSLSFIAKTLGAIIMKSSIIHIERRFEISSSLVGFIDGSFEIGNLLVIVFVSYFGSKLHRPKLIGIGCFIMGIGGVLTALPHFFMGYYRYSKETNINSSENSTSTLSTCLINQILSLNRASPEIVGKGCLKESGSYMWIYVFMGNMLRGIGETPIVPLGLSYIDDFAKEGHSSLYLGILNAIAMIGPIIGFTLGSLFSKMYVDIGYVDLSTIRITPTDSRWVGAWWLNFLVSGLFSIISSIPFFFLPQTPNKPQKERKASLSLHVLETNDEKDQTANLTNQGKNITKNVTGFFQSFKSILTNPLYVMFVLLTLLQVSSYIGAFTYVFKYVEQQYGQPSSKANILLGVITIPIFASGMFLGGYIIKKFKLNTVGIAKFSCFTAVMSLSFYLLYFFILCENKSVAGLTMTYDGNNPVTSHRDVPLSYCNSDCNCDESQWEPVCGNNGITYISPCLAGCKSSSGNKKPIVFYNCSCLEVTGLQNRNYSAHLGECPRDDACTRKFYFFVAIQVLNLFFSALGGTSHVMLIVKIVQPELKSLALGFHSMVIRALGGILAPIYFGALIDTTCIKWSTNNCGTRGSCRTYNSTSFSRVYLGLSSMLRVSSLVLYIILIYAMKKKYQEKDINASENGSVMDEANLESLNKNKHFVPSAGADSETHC
# Sus scrofa [3] = species: Sus scrofa; test: Stability of the compound assessed as porcine pancreatic elastase-mediated parent compound depletion by measuring parent compound remaining after 1 hr by LC-MS/MS analysis
# Bos taurus = species: Bos taurus; test: Stability of the compound assessed as bovine pancreas alpha chymotrypsin-mediated parent compound depletion by measuring parent compound remaining after 1 hr by LC-MS/MS analysis
# [4] = target: T2, Proprotein convertase subtilisin/kexin type 9 (Homo sapiens, UniProt Q8NBP7); test: Inhibition of human PCSK9 using Alexa Fluor […] as substrate incubated for 2 hrs by FRET plus assay
# [5] = AUC(0 to infinity) in Wistar Han rat at 5 mg/kg, id measured upto 24 hrs by LC-MS/MS analysis; type: ADME, organism-based; parameters: dose 5 mg/kg, time <=24; details: in vivo
# [6] = AUC(0 to infinity) in cynomolgus monkey at 0.2 mg/kg, iv measured upto 72 hrs by LC-MS/MS analysis; type: ADME, organism-based, Macaca fascicularis; parameters: route intravenous, dose 0.2 mg/kg, time <=72; details: in vivo
# [7] = Metabolic stability in cynomolgus monkey whole blood assessed as half life measured upto 6 hrs by LC-MS/MS analysis; type: ADME, tissue-based, Macaca fascicularis
# [8] = Clearance in cynomolgus monkey at 0.2 mg/kg, iv measured upto 72 hrs by LC-MS/MS analysis; type: ADME, organism-based, Macaca fascicularis; details: in vivo
# [9] = AUC(0 to infinity) in cynomolgus monkey at 1 mg/kg, po measured upto 72 hrs by LC-MS/MS analysis; type: ADME, organism-based, Macaca fascicularis; parameters: route oral, dose 1 mg/kg, time <=72; details: in vivo
# [10] = Reduction in unbound PCSK9 levels in cynomolgus monkey at 0.2 mg/kg, po after 0.5 to 6 hrs; type: functional, Macaca fascicularis; parameters: scale not given: the % may be the effect or the level left; details: time 0.5-6 hrs
# [11] = Bioavailability in Wistar Han rat at 5 mg/kg, id measured upto 24 hrs by LC-MS/MS analysis; type: ADME, organism-based; details: in vivo
# [12] = target: T2, Proprotein convertase subtilisin/kexin type 9; test: Inhibition of human PCSK9 using Alexa Fluor […] as substrate incubated for 2 hrs by FRET assay
# [13] = Reduction in unbound PCSK9 levels in cynomolgus monkey at 0.2 mg/kg, iv after 24 to 48 hrs; type: functional, Macaca fascicularis; parameters: scale not given: the % may be the effect or the level left; details: time 24-48 hrs
# Mast cell = test: Induction of rat mast cells degranulation activity at 100 uM incubated for 30 mins; type: functional, tissue-based
# [14] = Oral bioavailability in cynomolgus monkey at 1 mg/kg measured upto 72 hrs by LC-MS/MS analysis; type: ADME, organism-based, Macaca fascicularis; details: in vivo
# Sus scrofa [15] = species: Sus scrofa; test: Stability of the compound assessed as porcine pepsin-mediated parent compound depletion by measuring parent compound remaining after 1 hr by LC-MS/MS analysis
# [16] = Unbound clearance in cynomolgus monkey at 0.2 mg/kg, iv measured upto 72 hrs by LC-MS/MS analysis; type: ADME, organism-based, Macaca fascicularis; details: in vivo
# Macaca fascicularis [17] = test: Reduction in LDL-cholesterol levels in cynomolgus monkey at 0.2 mg/kg, iv after 4 weeks; type: functional, organism-based
# [18] = Protein binding in cynomolgus monkey at 0.2 mg/kg, iv measured upto 72 hrs by LC-MS/MS analysis; type: ADME, organism-based, Macaca fascicularis; details: in vivo, read-out: PB (converted)
# [19] = Tmax in Wistar Han rat at 5 mg/kg, id measured upto 24 hrs by LC-MS/MS analysis; type: ADME, organism-based; details: in vivo
# [20] = Volume of distribution at steady state in cynomolgus monkey at 0.2 mg/kg, iv measured upto 72 hrs by LC-MS/MS analysis; type: ADME, organism-based, Macaca fascicularis; details: in vivo, read-out: Vdss
# [21] = Half life in cynomolgus monkey at 0.2 mg/kg, iv measured upto 72 hrs by LC-MS/MS analysis; type: ADME, organism-based, Macaca fascicularis; details: in vivo
# [22] = Tmax in cynomolgus monkey at 1 mg/kg, po measured upto 72 hrs by LC-MS/MS analysis; type: ADME, organism-based, Macaca fascicularis; details: in vivo
# [23] = target: T2, Proprotein convertase subtilisin/kexin type 9; test: Inhibition of PCSK9 in human plasma assessed as reduction in unbound PCSK9 by target engagement assay; type: cell-free
# Macaca fascicularis [24] = species: Macaca fascicularis; test: Inhibition of PCSK9 in cynomolgus monkey plasma assessed as reduction in unbound PCSK9 by target engagement assay; type: cell-free
# [25] = Reduction in LDL-cholesterol levels in cynomolgus monkey at 0.2 mg/kg, iv after 48 hrs; type: functional, Macaca fascicularis; parameters: scale not given: the % may be the effect or the level left
# [26] = Stability of the compound assessed as bovine pancreatic trypsin-mediated parent compound depletion by measuring parent compound remaining after 1 hr by LC-MS/MS analysis; type: ADME, Bos taurus; details: cattle, read-out: Stability
# [27] = Reduction in unbound PCSK9 levels in cynomolgus monkey at 0.2 mg/kg, po after 24 hrs; type: functional, Macaca fascicularis; parameters: scale not given: the % may be the effect or the level left
# [28] = AUC extrapolated in cynomolgus monkey at 1 mg/kg, po measured upto 72 hrs by LC-MS/MS analysis; type: ADME, organism-based, Macaca fascicularis; details: in vivo
# [29] = target: T2, Proprotein convertase subtilisin/kexin type 9; test: Inhibition of human PCSK9 using Alexa Fluor […] as substrate incubated for 2 hrs by FRET ultra assay
# [30] = AUC extrapolated in Wistar Han rat at 5 mg/kg, id measured upto 24 hrs by LC-MS/MS analysis; type: ADME, organism-based; details: in vivo, other
# [31] = Cmax in Wistar Han rat at 5 mg/kg, id measured upto 24 hrs by LC-MS/MS analysis; type: ADME, organism-based; parameters: dose 5 mg/kg, time <=24; details: in vivo
# T2 sequence (Q8NBP7 31-152 limits assumed): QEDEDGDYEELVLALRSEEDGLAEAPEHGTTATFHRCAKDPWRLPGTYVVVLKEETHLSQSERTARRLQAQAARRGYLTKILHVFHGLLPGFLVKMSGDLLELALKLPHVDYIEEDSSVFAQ
# T2 sequence (Q8NBP7 153-692 limits assumed): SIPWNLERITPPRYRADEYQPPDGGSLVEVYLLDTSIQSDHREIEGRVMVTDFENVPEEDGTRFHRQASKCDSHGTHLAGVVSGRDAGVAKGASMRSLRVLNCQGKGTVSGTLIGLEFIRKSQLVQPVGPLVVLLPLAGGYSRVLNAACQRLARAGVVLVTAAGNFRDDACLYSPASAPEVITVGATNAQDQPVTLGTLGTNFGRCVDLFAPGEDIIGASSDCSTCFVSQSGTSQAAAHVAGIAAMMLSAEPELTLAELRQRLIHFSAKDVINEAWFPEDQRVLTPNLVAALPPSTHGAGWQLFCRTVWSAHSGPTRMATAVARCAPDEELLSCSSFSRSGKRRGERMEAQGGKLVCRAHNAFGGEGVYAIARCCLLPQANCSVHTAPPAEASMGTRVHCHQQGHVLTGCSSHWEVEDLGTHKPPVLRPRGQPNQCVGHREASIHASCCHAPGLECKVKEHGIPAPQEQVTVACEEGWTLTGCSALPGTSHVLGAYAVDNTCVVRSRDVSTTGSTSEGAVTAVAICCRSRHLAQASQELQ
smiles,measurement,setting,value
COc1ccc(C[C@@H]2NC(=O)[C@H]([C@@H](C)O)NC(=O)[C@@H]3[C@@H]4CCN3C(=O)[C@@H]3Cc5cn(c6ccc(F)cc56)Cc5cn(nn5)-c5cc(cc(c5)CSCCC(=O)N[C@@H](CNC(=O)CCOCCOCC[N+](C)(C)C)C(=O)N[C@H](C)C(=O)N[C@@H](Cc5cccc(c5)C/C=C/CO4)C(=O)N3)CSCCNC(=O)[C@]3(C)CCCN3C2=O)cc1,Cmax,[1],9.8 nM
same,EC50,[2],> 22000 nM
same,Stability,Sus scrofa [3],97%
same,Stability,Bos taurus,93%
same,Ki,[4],0.0114 nM
same,AUC(0-inf),[5],0.274 µM·h
same,AUC(0-inf),[6],1.47 µM·h
same,half-life,[7],> 6 h
same,clearance,[8],1.4 mL/min/kg
same,AUC(0-inf),[9],0.216 µM·h
same,Activity,[10],80%
same,bioavailability,[11],2.7%
same,Ki,[12],> 0.129 nM
same,Activity,[13],>80%
same,Activity,Mast cell,inactive
same,bioavailability,[14],2.9%
same,Stability,Sus scrofa [15],97.2%
same,CL free,[16],5.8 mL/min/kg
same,Activity,Macaca fascicularis [17],inactive
same,fraction unbound at 72 h,[18],0.247
same,Tmax,[19],0.5 h
same,Vd,[20],0.7 L/kg
same,half-life,[21],7.6 h
same,Tmax,[22],2 h
same,inhibition,[23],Active
same,inhibition,Macaca fascicularis [24],Active
same,Activity,[25],>50%
same,remaining at 1 h,[26],96.8%
same,Activity,[27],60%
same,%AUCextra,[28],43%
same,Ki,[29],0.00239 nM
same,%AUCextra,[30],3%
same,Cmax,[31],92 nM
